{"source": "patent US20240238300A1", "about": "“TREATMENT METHODS FOR SUBJECTS WITH CANCER HAVING AN ABERRATION IN EGFR AND/OR HER2” (TAIHO PHARMACEUTICAL CO., LTD., priority 2021, published 2024)", "key": {"[1]": {"system": "MDA-MB-175VII cells (DOC4-NRG1 fusion)", "assay": "growth inhibitory effect in NRG1 fusion-driven cancer cell line (GI50)", "type": "cell-based", "conditions": "Homo sapiens, mean of 3-4 independent experiments", "experimental": "GI50 values were also determined for currently approved EGFR/HER2 tyrosine kinase inhibitors: afatinib, osimertinib, tucatinib, lapatinib, and neratinib, and one investigational drug (poziotinib). Mean values were determined from 3-4 independent experiments."}, "[2]": {"system": "SK-BR-3 cells", "assay": "feedback activation of HER3, downstream targets and apoptosis markers in SK-BR-3 cells", "type": "cell-based, human", "conditions": "for phosphorylation of HER2, HER3, and their downstream targets: 3 hours; for phosphorylation of HER2, HER3, and their downstream targets / BIM and cleaved PARP: 30 to 300 nmol/L; for phosphorylation of HER2, HER3, and their downstream targets (AKT and ERK) / BIM and cleaved PARP: 48 hours", "excerpt": "The effect of Compound (1) on feedback activation of HER3, its downstream targets (ERK and AKT), and apoptosis markers (BIM and cleaved PARP) in SK-BR-3 cells was investigated. In addition, the same information for lapatinib and tucatinib (a reversible inhibitor of HER2) was obtained."}, "[3]": {"system": "NCI-N87 human gastric carcinoma xenografts", "assay": "antitumor effect in nude mice bearing NCI-N87 xenografts", "type": "in vivo", "conditions": "Day 15", "experimental": "The antitumor effect of Compound (1) was evaluated in nude mice bearing HER2-overexpressing NCI-N87 human gastric carcinoma xenografts. Compound (1) dosing suspensions using 0.5% w/v hydroxypropyl methylcellulose (HPMC) as vehicle were prepared at 4 dose levels (3.1, 6.3, 12.5, and 25.0 mg/kg/day) and administered orally once daily for 14 days. In addition, the antitumor effect of poziotinib, which is a pan-ErbB inhibitor and currently under clinical development for the treatment of cancer with epidermal growth factor receptor containing HER2 exon 20 insertion mutations, was also evaluated using this model. Poziotinib was administered orally once daily for 14 days at 2 dose levels (0.5 or 1.0 mg/kg/day). The control group received 0.5% w/v HPMC once daily for 14 days."}, "[4]": {"system": "MCF10A_HER2/insYVMA_v human mammary epithelial xenografts", "assay": "antitumor effect in nude mice bearing MCF10A_HER2/insYVMA_v xenografts", "type": "in vivo", "conditions": "Day 15", "experimental": "The antitumor effect of Compound (1) was evaluated in a nude mouse xenograft model of MCF10A_HER2/insYVMA_v. MCF10A_HER2/insYVMA_v was established as stably growing cells in vivo derived from MCF10A HER2/insYVMA (a human mammary epithelial cell line engineered to express the HER2 exon 20 insertion mutation A775_G776insYVMA) xenografts subcutaneously transplanted into nude mice. Compound (1) suspensions (using 0.5% w/v HPMC as vehicle) were administered orally once daily to mice at doses of 7.8, 12.5, or 20.0 mg/kg/day for 14 days. The control group received 0.5% weight per volume (w/v) hydroxypropyl methylcellulose (HPMC) solution orally once daily for 14 days.\nIn addition, the antitumor effect of poziotinib (an irreversible inhibitor of EGFR, HER2, and HER4) was also evaluated using this model."}, "[5]": {"system": "intracranial NCI-N87-luc human gastric carcinoma xenografts", "assay": "intracranial antitumor effect, NCI-N87-luc xenografts", "type": "in vivo, nude mice", "conditions": "Day 22", "experimental": "The intracranial antitumor effect of Compound (1) was evaluated using Compound (1) in nude mice intracranially implanted with NCI-N87-luc cells, which were engineered to stably express the luciferase gene using the HER2-overexpressing NCI-N87 human gastric carcinoma cell line. Compound (1) dosing suspensions using 0.5% w/v HPMC as vehicle were prepared with Compound (1) at 3 dose levels (16.0, 20.0, or 25.0 mg/kg/day) and administered PO QD for 21 days. The control group received 0.5% weight per volume (w/v) hydroxypropyl methylcellulose (HPMC) solution orally once daily for 21 days. The antitumor effect of poziotinib was also evaluated using this model. Poziotinib was administered PO QD for 21 days at 2 dose levels (0.5 or 1.0 mg/kg/day)."}, "[6]": {"system": "NCI-N87 human gastric carcinoma (HER2 overexpressing) xenografts", "assay": "refractory T-mab/P-mab model Step I", "type": "in vivo, male nude mice (BALB/cAJcl-mu/mu)", "method": "Male nude mice (BALB/cAJcl-mu/mu) were implanted with NCI-N87 human gastric carcinoma (HER2 overexpressing); 1.0×10^7 cells in 100 μL of PBS were implanted subcutaneously per mouse."}, "[7]": {"system": "NCI-N87 xenografts relapsed from T-DM1", "conditions": "10 mg/kg/day iv Day 1", "experimental": "Male nude mice (BALB/cAJ1-mu/mu) were implanted with NCI-N87 human gastric carcinoma (HER2 overexpressing); 1.0×10^7 cells in 100 μL of PBS were implanted subcutaneously per mouse.\nPO; or treated with an oral suspension of Compound (1) once per day at a dosage of 25 mg/kg/day, PO. The tumor volumes (TV, mm^3) and body weights of the mice were recorded."}, "[8]": {"system": "NCI-N87 tumor fragment #6, clone 3", "assay": "refractory T-DM1 monoclonal cell line model, comparison to DS-8201a", "type": "in vivo, male mice", "conditions": "single iv dose of 10 mg/kg T-DM1", "experimental": "The obtained cell line was implanted into BALB/cAJcl-mu/nu male mice (8.0×10^6 cells in 100 μL of PBS/mouse, subcutaneous) for the efficacy test.\nThe tumor volumes (TV, mm) and body weights of the mice were recorded."}, "[9]": {"conditions": "Step I Day 22, 20 mg/kg/day (each) ip Days 1, 8, 15"}}}
{"compound": "CN(C)C/C=C/C(=O)Nc1cc2c(Nc3ccc(F)c(Cl)c3)ncnc2cc1O[C@H]1CCOC1", "note": "[afatinib]", "values": [{"measurement": "GI50", "setting": "[1]", "result": "5.6 ± 2.7", "unit": "nM"}]}
{"compound": "CS(=O)(=O)CCNCc1ccc(-c2ccc3ncnc(Nc4ccc(OCc5cccc(F)c5)c(Cl)c4)c3c2)o1", "note": "[lapatinib]", "values": [{"measurement": "phosphorylation of HER2, HER3, and their downstream targets", "setting": "[2]", "result": "inhibited the phosphorylation"}, {"measurement": "phosphorylation of HER2, HER3, and their downstream targets (AKT and ERK)", "setting": "[2]", "result": "increased again"}, {"measurement": "BIM and cleaved PARP", "setting": "[2]", "result": "increased"}, {"measurement": "GI50", "setting": "[1]", "result": "89.5 ± 39.5", "unit": "nM"}]}
{"compound": "CCOc1cc2ncc(C#N)c(Nc3ccc(OCc4ccccn4)c(Cl)c3)c2cc1NC(=O)/C=C/CN(C)C", "note": "[neratinib]", "values": [{"measurement": "GI50", "setting": "[1]", "result": "3 ± 0.6", "unit": "nM"}]}
{"compound": "C=CC(=O)Nc1cc(Nc2nccc(-c3cn(C)c4ccccc34)n2)c(OC)cc1N(C)CCN(C)C", "note": "[osimertinib]", "values": [{"measurement": "GI50", "setting": "[1]", "result": "29.4 ± 1.5", "unit": "nM"}]}
{"compound": "C=CC(=O)N1CCC(Oc2cc3c(Nc4ccc(Cl)c(Cl)c4F)ncnc3cc2OC)CC1", "note": "[poziotinib, reference compound]", "values": [{"measurement": "T/C ratio of the mean tumor volumes", "setting": "[3]; 0.5 mg/kg/day orally once daily 14 days", "result": 44.2, "unit": "%"}, {"measurement": "T/C ratio of the mean tumor volumes", "setting": "[3]; 1.0 mg/kg/day orally once daily 14 days", "result": 8.8, "unit": "%"}, {"measurement": "T/C ratio of the mean tumor volume", "setting": "[4]; 0.5 mg/kg/day", "result": 29.0, "unit": "%"}, {"measurement": "T/C ratio of the mean tumor volume", "setting": "[4]; 1.0 mg/kg/day", "result": 8.3, "unit": "%"}, {"measurement": "T/C ratio of the mean total flux", "setting": "[5]; 0.5 mg/kg/day PO QD 21 days", "result": 39.0, "unit": "%"}, {"measurement": "mean body weight change (BWC)", "setting": "[5]; 0.5 mg/kg/day", "result": 2.5, "unit": "%"}, {"measurement": "T/C ratio of the mean total flux", "setting": "[5]; 1.0 mg/kg/day PO QD 21 days", "result": 21.1, "unit": "%"}, {"measurement": "mean body weight change (BWC)", "setting": "[5]; 1.0 mg/kg/day", "result": "−0.3", "unit": "%"}, {"measurement": "GI50", "setting": "[1]", "result": "0.3 ± 0.2", "unit": "nM"}]}
{"compound": "Cc1cc(Nc2ncnc3ccc(NC4=NC(C)(C)CO4)cc23)ccc1Oc1ccn2ncnc2c1", "note": "[tucatinib]", "values": [{"measurement": "phosphorylation of HER2, HER3, and their downstream targets", "setting": "[2]", "result": "inhibited the phosphorylation"}, {"measurement": "phosphorylation of HER2, HER3, and their downstream targets (AKT and ERK)", "setting": "[2]", "result": "increased again"}, {"measurement": "BIM and cleaved PARP", "setting": "[2]", "result": "increased"}, {"measurement": "GI50", "setting": "[1]", "result": "27.6 ± 5.5", "unit": "nM"}]}
{"compound": "pertuzumab [P-mab]", "values": [{"measurement": "RTV (mean ± SE)", "setting": "[6]; Day 22 to Day 0 (Step I), 20 mg/kg/day (each) ip Days 1, 8, 15", "result": 4.0}, {"measurement": "T/C", "setting": "[6]; Step I Day 22, vs non-treatment control, 20 mg/kg/day (each) ip Days 1, 8, 15", "result": 76.5, "unit": "%"}, {"measurement": "Number of Death", "setting": "[6]; [9]", "result": 0}, {"measurement": "TV (mean ± SE)", "setting": "[6]; [9]", "result": 1233.1, "unit": "mm^3"}, {"measurement": "BWC (mean ± SE)", "setting": "[6]; mouse, in vivo, ip, 20 mg/kg/day", "result": 10.20, "unit": "%"}]}
{"compound": "trastuzumab emtansine [T-DM1]", "values": [{"measurement": "RTV (mean ± SE)", "setting": "[7]; Day 22 to Day 1 (Step II)", "result": 1.73}, {"measurement": "TV (mean ± SE)", "setting": "[7]; Step II Day 22", "result": 595.1, "unit": "mm^3"}, {"measurement": "T/C", "setting": "[7]; Step II Day 22, reference group", "result": 100.0, "unit": "%"}, {"measurement": "antitumor effect (tumor volume)", "setting": "[8]", "result": "failing to inhibit tumor growth"}]}
